Earlier results as cited in patent publication US20040146462A1, “Contrast agents” (priority 1998, published 2004).

System: coronary blood flow in healthy myocardial tissue
Details: administration of adenosine

Nc1ncnc2c1ncn2[C@@H]1O[C@H](CO)[C@@H](O)[C@H]1O [adenosine]
increase in coronary blood flow in healthy myocardial tissue: in excess of fourfold
